According to the supplement of paper PMC3974653:
Counter-ions that a name gives are not always drawn.

System: MTT (mouse pheochromocytoma)
Assay: IC50 of cell viability (ATP content)
Details: (24 or 48 h)
Outline: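 MTT mouse pheochromocytoma cells in white 1536-well plates were treated for 24 or 48 hrs with library compounds at 8 final concentrations from 0.5 nM to 46 µM. ATP content was measured with CellTiter-Glo luminescence, using positive-control wells as 100% and DMSO wells as 0%. IC50 came from a four-parameter logistic fit.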

SMILES | IC50 of cell viability [µM]
O=C(O)c1ccc(-n2nc(-c3ccccc3O)nc2-c2ccccc2O)cc1 [DEFERASIROX] | > 46
CCOC(=O)C1(c2ccccc2)CCN(CCC(C#N)(c2ccccc2)c2ccccc2)CC1 [DIPHENOXYLATE HYDROCHLORIDE] | > 46
NCCc1cc[nH]n1 [Betazole hydrochloride] | > 46
Oc1ccccc1/C=N/Cc1ccccc1 [Norletimol] | > 46
CC1(C)OC[C@@H](COC(=O)CCc2ccc(OC[C@@H](O)CNCCNC(=O)N3CCOCC3)cc2)O1 [Landiolol Hydrochloride] | > 46
Cc1c(N)nc([C@@H](CC(N)=O)NC[C@H](N)C(N)=O)nc1C(=O)N[C@H](C(=O)N[C@H](C)[C@H](O)[C@H](C)C(=O)N[C@@H](C(=O)NCCc1nc(-c2nc(C(=O)NCCC[S+](C)C)cs2)cs1)[C@H](C)O)[C@H](O[C@@H]1O[C@@H](CO)[C@@H](O)[C@H](O)[C@@H]1O[C@H]1O[C@H](CO)[C@H](O)[C@H](OC(N)=O)[C@@H]1O)c1c[nH]cn1 [Bleomycin Sulfate] | > 46
C[C@]12CC(=O)[C@H]3[C@@H](CC\C4=C\C(=O)\C=C/[C@]34C)[C@@H]1CC[C@]2(O)C(=O)CO [Prednisone] | > 46
COCCOC(=O)C1=C(C)NC(C)=C(C(=O)OC/C=C/c2ccccc2)C1c1cccc([N+](=O)[O-])c1 (configuration not stated) [Cilnidipine] | > 46
CCOC(=O)\C1=C\[C@]2(CC)CCCN3CCC4=C([C@H]23)[N]1C5=C4C=CC=C5 [VINPOCETINE] | > 46
Oc1ccc(C(O)CNCCCCCCNCC(O)c2ccc(O)c(O)c2)cc1O (configuration not stated) [HEXOPRENALINE SULFATE] | > 46
NC(=O)N[C@@H](CCC(=O)O)C(=O)O [N-CARBAMYL-L-GLUTAMIC ACID] | > 46
NC(CO)(CO)CO.O=C(c1ccccc1)c1ccc2n1CC[C@H]2C(=O)O [Ketorolac tromethamine] | > 46
N=C(N)NC(=N)NCCc1ccccc1 [Phenformin hydrochloride] | > 46
COCc1c(C(C)C)nc(C(C)C)c(/C=C/[C@@H](O)C[C@@H](O)CC(=O)[O-])c1-c1ccc(F)cc1 [CERIVASTATIN SODIUM] | > 46
CCCN[C@H]1CCc2nc(N)sc2C1 [PRAMIPEXOLE DIHYDROCHLORIDE] | > 46
CC(C)(C)CC(C)(C)c1cc(Cc2cc(C(C)(C)CC(C)(C)C)cc(-n3nc4ccccc4n3)c2O)c(O)c(-n2nc3ccccc3n2)c1 [BISOCTRIZOLE] | > 46
C[C@H]1[C@H](NC(=O)/C(=N/OC(C)(C)C(=O)O)c2csc(N)n2)C(=O)N1[S+](=O)([O-])O [Aztreonam] | > 46
CCN(CC)CCNC(=O)c1ccc(N[S+](C)(=O)[O-])cc1.Cl.O [Sematilide monohydrochloride monohydrate] | > 46
CO[C@H]1[C@@H](O[C@@H]2O[C@@H](C)[C@@H](O[C@H]3C[C@](C)(O)[C@H](OC(=O)CC(C)C)[C@H](C)O3)[C@@H](N(C)C)[C@H]2O)[C@H](CC=O)C[C@@H](C)[C@@H](O)/C=C\C=C/C[C@@H](C)OC(=O)C[C@H]1OC(C)=O [Josamycin] | > 46
C\C1=C(\C=C(\C#N)C(=O)N1)C2=CC=NC=C2 [Milrinone] | > 46
CO/N=C(\C(=O)N[C@@H]1C(=O)N2C(C(=O)O)=C(Cn3nnc(C)n3)CS[C@H]12)c1csc(N)n1 [CEFTERAM] | > 46

SMILES | IC50 of cell viability [µM]
FCOC(C(F)(F)F)C(F)(F)F [SEVOFLURANE] | > 46
CCC1OC(=O)C[C@H](O)C(C)[C@@H](O[C@@H]2OC(C)C(O)[C@H](N(C)C)C2O)C(CCN2CC(C)CC(C)C2)CC(C)C(=O)/C=C/C(C)=C\[C@@H]1COC1OC(C)C(O)C(OC)C1OC (some centres not stated) [TILMICOSIN] | > 46
[O]=[Bi][O][Bi]=[O] [BISMUTH OXIDE] | > 46
CC(C)(C)c1ccc(O)c(O)c1 [p-tert-Butylcatechol] | > 46
C[C@H](O)[C@H]1[C@@H]2[C@@H](C)\C(=C(/N2C1=O)C(O)=O)S[C@@H]3CN[C@H](C3)C(=O)N(C)C [Meropenem] | > 46
O=[S+]([O-])(O)CCS [MESNA] | > 46
COc1cc(CCN)c(OC)cc1Br | > 46
CO/N=C(\C(=O)NC1C(=O)N2C(C(=O)OCOC(=O)C(C)(C)C)=C(/C=C\c3scnc3C)CSC12)c1csc(N)n1 (configuration not stated) [CEFDITORIN PIVOXIL] | > 46
CCCCCCCCCCCCCCCCCC(=O)O [Stearic acid] | > 46
O=C(Nc1ccc(/C=C/c2ccc(NC(=O)c3cc([S+](=O)([O-])O)c4cccnc4c3O)cc2[S+](=O)([O-])O)c([S+](=O)([O-])O)c1)c1cc([S+](=O)([O-])O)c2cccnc2c1O [Ubistatin A] | > 46
CC(=O)Oc1c(C)cc(OCC(O)CNC(C)C)c(C)c1C (configuration not stated) [Metipranolol] | > 46
CCC(C)(C)c1ccc(O)cc1 [p-tert-Pentylphenol] | > 46
C[C@H]1C[C@H]2[C@@H]3CCC4=CC(=O)C=C[C@]4(C)[C@@]3(Cl)[C@@H](O)C[C@]2(C)[C@@]1(O)C(=O)CO [Beclomethasone] | > 46
CC\12CCC(=O)\C=C1CCC3C2CCC4(C)C3CCC4(O)C#C (configuration not stated) [ETHISTERONE] | > 46
CC(C)C(Br)C(=O)NC(N)=O (configuration not stated) [Bromisovalum] | > 46
COc1cccc2c1[C@@H]1CN(CCCCn3c(=O)[nH]c4c(sc5ncc(-c6ccccc6)nc54)c3=O)C[C@@H]1CO2 [Fiduxosin hydrochloride] | > 46
Cc1[nH]c(=O)c(C#N)cc1-c1ccncc1 [Milrinone] | > 46
O=C([O-])CCC/C=C\C[C@@H]1[C@@H](/C=C/[C@@H](O)COc2cccc(Cl)c2)[C@H](O)C[C@@H]1O [CLOPROSTENOL SODIUM] | > 46
CC(=O)Oc1cccc(O)c1 [RESORCINOL MONOACETATE] | > 46
CC(=O)[C@@H]1CC[C@@H]2[C@@H]3\C=C/C4=C/C(=O)CC[C@@]4(C)[C@H]3CC[C@@]12C [Dydrogesterone] | > 46
CC(C)NCC(O)COc1ccc(COCCOC(C)C)cc1.CC(C)NCC(O)COc1ccc(COCCOC(C)C)cc1.O=C(O)/C=C/C(=O)O (configuration not stated) [Bisoprolol hemifumarate salt] | > 46

SMILES | IC50 of cell viability [µM]
CSc1ccc2c(c1)C(N1CCN(C)CC1)Cc1ccccc1S2 (configuration not stated) [METHIOTHEPIN] | > 46
COc1cc(C[C@H](C)N)c(OC)cc1C [(+)-2,5-Dimethoxy-4-methylamphetamine] | > 46
O=P([O-])(O)C(Cl)(Cl)P(=O)([O-])O.[Na+].[Na+] [Clodronic acid] | > 46
Cc1cccc(C)c1NC(=O)C1CCCCN1C.Cl (configuration not stated) [MEPIVACAINE HYDROCHLORIDE] | > 46
CN1C(=O)CC[C@H]1c1cccnc1 [(-)-COTININE] | > 46
Cc1ccc(Nc2c(F)cccc2Cl)c(CC(=O)O)c1 [Lumiracoxib] | > 46
CC(C)NC(C)C [Diisopropyl amine] | > 46
CCN(CC)C(=O)[C@H]\1CN(C)[C@@H]\2CC3=C[NH]C4=C3C(=CC=C4)C2=C1 [Lysergic acid diethylamide] | > 46
C=CCN1C(=O)C(CC(C)C)NC1=S (configuration not stated) [Albutoin] | > 46
N[S+](=O)([O-])c1ccc(NC(=O)CCC(=O)O)cc1 [SULFASUCCINAMIDUM] | > 46
Nc1c2c(nc3ccccc13)CCCC2O (configuration not stated) [HYDROXYTACRINE] | > 46
CC(=O)Oc1ccc(C2(c3ccc(OC(C)=O)cc3)C(=O)Nc3ccccc32)cc1 [Oxyphenisatin Acetate] | > 46
OCCOC[C@H]1O[C@H](OCCO)[C@H](OCCO)[C@@H](OCCO)[C@@H]1OCCO.OC[C@H]1O[C@H](O)[C@H](O)[C@@H](O)[C@@H]1O [PENTASTARCH] | > 46
CNCCCCOc1ccccc1Cc1ccccc1 [Bifemelane] | > 46
C1\C=C/C2C\3CC(\C=C3)C12 (configuration not stated) [Dicyclopentadiene] | > 46
CC1(C)C[C@@H]1C(=O)N/C(=C\CCCCSC[C@H](N)C(=O)O)C(=O)O [CILASTATIN SODIUM] | > 46
CN(C)CCCN1c2ccccc2C(C)(C)c2ccccc21 [Dimetacrine] | > 46
CC(Cc1ccccc1)NCCn1cnc2c1c(=O)n(C)c(=O)n2C (configuration not stated) [Fenethylline] | > 46
CN1CCN(C2=Nc3cc(F)ccc3Cc3ccccc32)CC1 [Fluperlapine] | > 46
NC1(c2ccccc2)CCCCC1 [1-Phenylcyclohexyl] | > 46
